In series [1] the test system is β2-Rezeptoren der Gefäße. The series is described as follows: Stimulating effects on vascular β2 receptors, comparison with the known 2,5-dichloro compound. The following applies: compared with the 2,4-Dichlor-Verbindung. From the text: 1-Phenoxy-3-alkylamino-propanole-(2) sind mehrfach beschrieben worden (DE-PS 2259 489, DE-PS 2213 044, DD-AP 45 360, BE-PS 783 086, NE-PS 6813 616, GD-PS 1148 563, NE-PS 7307 821, DD-AP 93 349, GB-PS 1078 852, BE-PS 746 107). Auch das 1-(2,5-Dichlor-phenoxy )-3-(3,4-dimethoxy-ß-phenethylamino)-propanol-(2) ist bekannt (JA-0 52033 829); es unterscheidet sich in seiner Wirksamkeit gegenüber der erfindungsgemäßen 2,4-Dichlor-Verbindung jedoch dadurch, daß die ausgeprügten stimulierenden Effekte an den β2-Rezeptoren der Gefäße, die eine große Bedeutung für den therapeutischen Einsatz besitzen, fehlen.

Series [2] relates to β1-Rezeptoren. The series can be described thus: Isoproterenol antagonism, lipolysis in epididymal fat. The following applies: Isoproterenolantagonismus, Propranolol = 100; Ratte.
In series [3] the test system is β1-Rezeptoren. The series is described as follows: Isoproterenol antagonism, intestinal peristalsis. The following applies: Isoproterenolantagonismus, Propranolol = 100; Kaninchen.
The target of series [4] is T1, β1-Rezeptoren (Canis lupus familiaris, UniProt P79148).
T1 construct: from tissue; host or cells: dog, whole animal (heart)
The series is described as follows: β1 blockade, heart rate and contractility in the whole animal. Type of series: in vivo. The following applies: Hund; relative to Propranolol. An excerpt: (§1) Aus diesem Grunde ist die Anwendung von nichtselektiv wirkenden β-Rezeptorenblockern bei Patienten mit obstruktiven Atemwegserkrankungen kontraindiziert. Aber auch die Anwendung der sogenannten kardioselektiven ß-Rezeptorenblocker, z. […] Disposition des Patienten zur Dyspnoe führen bzw. einen Asthmaanfall auslösen können.

Series [5] concerns the target T2, β1-Rezeptoren (Felis catus, UniProt Q9TST6).
T2 construct: from tissue; host or cells: cat, whole animal (heart)
Described as above. Type of series: in vivo. The following applies: Katze; relative to Propranolol.
Text: as §1

The target of series [6] is T3, β2-Rezeptoren der Gefäße (Canis lupus familiaris, UniProt P54833).
T3 construct: from tissue; host or cells: dog, whole animal (blood vessels; bronchial muscle in the anaesthetised dog)
The series is described as follows: Influence on the blood-pressure-lowering effect of isoproterenol. Type of series: in vivo. The following applies: Hund.
Text: as §1

The target in series [7] is T4, β2-Rezeptoren der Gefäße (Felis catus, UniProt Q9TST5).
T4 construct: from tissue; host or cells: cat, whole animal (blood vessels)
Described as above. Type of series: in vivo. The following applies: Katze.
Text: as §1

For series [8], the system named is spontan hypertensive Ratte. The series can be described thus: Antihypertensive effect in the spontaneously hypertensive rat. Type of series: in vivo. The following applies: fold stronger than Propranolol.
Text: as §1

The subject of series [9] is adrenergen β2-Rezeptoren der Bronchialmuskulatur. The series can be described thus: β2 stimulation of bronchial muscle, isolated tracheal muscle and whole animal. The following applies: am isolierten Trachealmuskel als auch im Ganztierversuch.
Text: as §1

For series [10], the target named is T5, adrenergen β2-Rezeptoren der Bronchialmuskulatur (Canis lupus familiaris, UniProt P54833).
T5 construct: from tissue; host or cells: dog, whole animal (blood vessels; bronchial muscle in the anaesthetised dog)
The series can be described thus: Respiratory minute volume in the anaesthetised dog. The following applies: narkotisierter Hund; 0,1 mg/kg. Type of series: in vivo.
Text: as §1

Series [11] deals with T6, adrenergen β2-Rezeptoren der Bronchialmuskulatur (Cavia porcellus, UniProt Q8K4Z4).
T6 construct: from tissue; host or cells: conscious guinea pig, whole animal (airways)
The series is described as follows: Tolerance time to asthma-inducing histamine in the conscious guinea pig. Type of series: in vivo, Meerschweinchen. The following applies: read-out: ED50, Verdopplung der Toleranzzeit gegenüber dem asthmaauslösenden Histamin.
Text: as §1

The test system of series [12] is elektrischen Flimmerschwelle. The series is described as follows: Antiarrhythmic effect, rise of the electrical fibrillation threshold. Type of series: in vivo, Meerschweinchen. The following applies: for ED50: Cavia porcellus, read-out: ED50, Erhöhung der elektrischen Flimmerschwelle.
Text: as §1

The test system of series [13] is Nikotintremor des Meerschweinchens. The series is described as follows: Nicotine tremor, antiparkinson effect. Type of series: in vivo, Meerschweinchen. The following applies: compared with Trihexylphenidyl (Parkopan).
Text: as §1

Another series in a line: in vivo. The following applies: mouse, ip.
Text: as §1

Series [14] relates to Myokardinfarktmodell der Ratte. The series is described as follows: Myocardial infarction model, prophylactic oral dosing before coronary ligation. The following applies: relative to Propranolol; orale Applikation von 3,6 und 12 mg/kg I über 28 Tage vor Ligatur der A. coronaria sinistra; CPK, GOT, EKG-Veränderungen, relatives Infarktgewicht.

Read-outs that look alike come from different tables or passages of the source.

T6 sequence (Q8K4Z4 whole entry): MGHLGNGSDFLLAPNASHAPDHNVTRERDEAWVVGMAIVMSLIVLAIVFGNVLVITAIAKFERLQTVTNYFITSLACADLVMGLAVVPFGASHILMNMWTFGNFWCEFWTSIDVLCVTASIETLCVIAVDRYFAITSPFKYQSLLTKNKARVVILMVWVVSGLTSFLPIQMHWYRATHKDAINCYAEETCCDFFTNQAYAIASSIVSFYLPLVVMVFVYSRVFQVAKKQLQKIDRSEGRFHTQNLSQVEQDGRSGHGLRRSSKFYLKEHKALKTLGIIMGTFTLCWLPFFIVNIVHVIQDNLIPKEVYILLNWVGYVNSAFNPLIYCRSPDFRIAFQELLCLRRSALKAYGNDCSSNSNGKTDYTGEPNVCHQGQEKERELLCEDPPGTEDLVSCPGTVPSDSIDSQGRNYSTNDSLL
T4 sequence (Q9TST5 whole entry): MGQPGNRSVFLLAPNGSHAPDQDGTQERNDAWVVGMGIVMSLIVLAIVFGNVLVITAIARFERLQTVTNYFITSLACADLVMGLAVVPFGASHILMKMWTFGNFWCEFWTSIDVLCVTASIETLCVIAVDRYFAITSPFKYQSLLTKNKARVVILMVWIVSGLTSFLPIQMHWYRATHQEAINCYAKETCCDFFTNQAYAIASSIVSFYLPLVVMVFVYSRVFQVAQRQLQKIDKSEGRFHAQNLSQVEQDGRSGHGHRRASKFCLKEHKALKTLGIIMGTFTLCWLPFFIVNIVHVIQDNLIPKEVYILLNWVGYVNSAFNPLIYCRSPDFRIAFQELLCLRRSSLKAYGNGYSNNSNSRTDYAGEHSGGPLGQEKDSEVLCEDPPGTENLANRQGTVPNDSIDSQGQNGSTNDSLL
T1 sequence (P79148 whole entry): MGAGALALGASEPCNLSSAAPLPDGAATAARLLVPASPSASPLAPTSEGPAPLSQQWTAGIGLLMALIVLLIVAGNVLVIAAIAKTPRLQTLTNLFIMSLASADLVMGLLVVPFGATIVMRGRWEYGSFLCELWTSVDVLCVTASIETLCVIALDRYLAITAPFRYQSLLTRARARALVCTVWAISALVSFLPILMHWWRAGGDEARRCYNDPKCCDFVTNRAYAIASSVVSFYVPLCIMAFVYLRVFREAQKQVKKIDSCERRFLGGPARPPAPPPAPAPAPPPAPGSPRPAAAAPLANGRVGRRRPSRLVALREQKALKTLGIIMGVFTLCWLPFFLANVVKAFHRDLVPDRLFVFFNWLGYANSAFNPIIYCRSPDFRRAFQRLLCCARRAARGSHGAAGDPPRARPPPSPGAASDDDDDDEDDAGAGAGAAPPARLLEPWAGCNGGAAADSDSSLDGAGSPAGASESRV
T2 sequence (Q9TST6 whole entry): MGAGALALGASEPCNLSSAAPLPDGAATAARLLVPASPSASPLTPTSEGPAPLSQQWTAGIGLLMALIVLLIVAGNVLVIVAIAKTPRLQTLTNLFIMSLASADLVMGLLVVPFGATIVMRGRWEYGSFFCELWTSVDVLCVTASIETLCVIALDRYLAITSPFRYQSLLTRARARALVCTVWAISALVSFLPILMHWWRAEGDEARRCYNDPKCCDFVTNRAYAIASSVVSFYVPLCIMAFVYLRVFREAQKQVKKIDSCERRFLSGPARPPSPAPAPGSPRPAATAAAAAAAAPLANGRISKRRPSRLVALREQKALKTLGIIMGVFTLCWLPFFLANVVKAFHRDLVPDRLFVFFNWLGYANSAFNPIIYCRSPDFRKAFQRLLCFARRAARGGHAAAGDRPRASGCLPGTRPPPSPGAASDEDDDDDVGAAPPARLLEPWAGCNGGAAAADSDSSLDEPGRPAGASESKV
T3 sequence (P54833 whole entry): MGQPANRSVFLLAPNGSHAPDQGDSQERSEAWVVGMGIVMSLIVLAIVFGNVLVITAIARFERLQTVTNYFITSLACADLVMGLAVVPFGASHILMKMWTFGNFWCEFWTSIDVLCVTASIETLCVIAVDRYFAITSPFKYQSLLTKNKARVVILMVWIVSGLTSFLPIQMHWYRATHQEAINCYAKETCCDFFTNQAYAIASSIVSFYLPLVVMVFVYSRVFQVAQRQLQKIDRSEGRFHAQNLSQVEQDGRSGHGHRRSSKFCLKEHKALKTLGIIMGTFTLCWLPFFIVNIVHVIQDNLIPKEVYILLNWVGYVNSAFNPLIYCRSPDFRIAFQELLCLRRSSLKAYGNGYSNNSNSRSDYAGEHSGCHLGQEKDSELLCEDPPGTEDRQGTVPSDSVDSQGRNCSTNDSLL
T5 sequence (P54833 whole entry): as above

With `COc1ccc(CCNCC(O)COc2cc(Cl)ccc2Cl)cc1OC` (stereo not shown) [1-(2,5-Dichlor-phenoxy)-3-(3,4-dimethoxy-ß-phenethylamino)-propanol-(2)], the “stimulierende Effekte an den β2-Rezeptoren der Gefäße” value in the series with β2-Rezeptoren der Gefäße [1] is given as “fehlen”.

Regarding `COc1ccc(CCNCC(O)COc2ccc(Cl)cc2Cl)cc1OC` (stereo not drawn) [I, 1-(2,4-Dichlorphenoxy)-3-(3,4-dimethoxy-β-phenethylamino)-propanol-(2)], the “Stärke der β1-Rezeptorenblockade, Lipolyse (Epiditymalfett)” value with β1-Rezeptoren [2] was found to be 220. Moreover, the “Stärke der β1-Rezeptorenblockade, Darmperistaltik” value in the series on β1-Rezeptoren [3] was 100. The “Wirksamkeit an den β1-Rezeptoren (Herzfrequenz und Kontralctilität am Ganztier)” value at β1-Rezeptoren [4] and on β1-Rezeptoren [5] was “nur halb so wirksam wie Propranolol” in each case. Besides, the “blutdrucksenkender Effekt des Isoproterenols” value on β2-Rezeptoren der Gefäße [6] and on β2-Rezeptoren der Gefäße [7] was “Verstärkung der Isoproterenolwirkung” in each case. The “antihypertensiver Effekt” value in series [8] is reported as about 10. In addition, the “Stimulation der adrenergen β2-Rezeptoren der Bronchialmuskulatur” value in [9] is on record as “nachweisen läßt”. Further, in series [10], the Atemzeitvolumen result was “isoproterenolähnlichen Vergrößerung des Atemzeitvolumens”. For the same compound, the ED50 amounted to 0.76 mg/kg in series [11] and 0.22 mg/kg in series [12] (Meerschweinchen). The Antiparkinsonwirkung result in series [13] is “etwa die gleiche Antiparkinsonwirkung wie Trihexylphenidyl”. Also, the LD50 in “in vivo” is 141 mg/kg. The “kardioprotektive Wirkung” value in [14] is recorded as “zweimal”.

With `CC(C)NCC(O)c1ccc(O)c(O)c1` (stereo not shown) [Isoproterenol, reference compound], the ED50 in series [11] turned out to be 0.04 mg/kg.

For `CC(C)NCC(O)COc1cccc2ccccc12` (stereo not shown) [Propranolol, reference compound], the “blutdrucksenkender Effekt des Isoproterenols” value at β2-Rezeptoren der Gefäße [7] is “aufhebt”. The ED50 in [12] (Meerschweinchen) was 1.4 mg/kg.

As for `CC(C)(C)NCC(O)COc1ccc(NC(=O)NC2CCCCC2)cc1` (stereo not shown) [Talinolol, reference compound], the “Stärke der β1-Rezeptorenblockade, Lipolyse (Epiditymalfett)” value in the series with β1-Rezeptoren [2] is reported as 96. Besides, the “Stärke der β1-Rezeptorenblockade, Darmperistaltik” value in the series with β1-Rezeptoren [3] turned out to be 35. In addition, the ED50 in series [12] was determined as 0.31 mg/kg.

For Tachmalin, the “ED50, Erhöhung der elektrischen Flimmerschwelle” value in [12] (Meerschweinchen) is recorded as 0,71 mg/kg.

Usually ED50 stands for the midpoint of the dose-response relation. As a reminder, the LD50 is the dose expected to kill half of the subjects tested. Low readings indicate greater toxicity, high ones lower toxicity.

The values above are taken from EP0086256A1, “1-(2,4-Dichlorophenoxy)-3-(3,4-dimethoxy-beta-phenethylamino)-propan-2-0l, processes for its preparation and pharmaceutical compositions containing it” (VEB Arzneimittelwerk Dresden, priority 1981, dated 1983).
